The text below walks through data of publication PMC6438731, “Extrasynaptic δ‐GABAA receptors are high‐affinity muscimol receptors” (Journal of Neurochemistry, 2019).

The target in experiment [1] is T1, α1β2δ recombinant GABAA receptor (Rattus norvegicus, UniProt P62813+P63138).
T1 construct: expressed in transfected cells; host or cells: HEK293 (ATCC CRL-1573), pRK5 plasmids, membranes
As to the kind of experiment: [^3H]muscimol binding kinetics, recombinant α1β2δ in HEK293 membranes. The settings on record: room temperature (22°C). An excerpt: (§1) Human embryonic kidney (HEK) 293 cells (ATCC Cat# CRL‐1573; RRID: CVCL_0045; a commonly misidentified cell line by ICLAC; last authenticated by STR DNA profiling in December 2018) were transfected with rat cDNAs (α1, L08490; α6, L08495; β2, X15467; β3, X15468; γ2S, L08497; δ, L08496) in pRK5 plasmids under the control of the cytomegalovirus promoter (Uusi‐Oukari et al. 2000), using the calcium phosphate precipitation method essentially as described (Lüddens and Korpi 1997). The plasmids were used in 1 : 1 and 1 : 1 : 1 ratios for transfections containing 2 [(α1 or α6) + (β2 or β3)] or 3 [(α1 or α6) + (β2 or β3) + (γ2S or δ)] different subunits, respectively (5 μg of each plasmid DNA for a 10 cm plate). […]
(§2) The binding of [^3H]muscimol (5 nM) was measured in assay buffer at 22°C in a total volume of 300 μL. […] Air‐dried filters were immersed in 3 mL of Optiphase HiSafe 3 scintillation fluid (Wallac, Turku, Finland) and radioactivity determined in a Wallac model 1410 liquid scintillation counter (Wallac, Turku, Finland).
(§3) The tubes were mixed and incubations at 22°C were terminated at various time points (30 s – 30 min) as described above. Dissociation of [^3H]muscimol from recombinant receptors in HEK cell membranes was also measured at 0–4°C (on ice) to evaluate how fast [^3H]muscimol dissociates from receptors while washing the filter with ice‐cold assay buffer during filtration.

Experiment [2] deals with T2, α1β2γ2 recombinant GABAA receptor (Rattus norvegicus, UniProt P62813+P63138).
T2 construct: expressed in transfected cells; host or cells: HEK293 (ATCC CRL-1573), pRK5 plasmids, membranes
In words: [^3H]muscimol binding kinetics, recombinant α1β2γ2 in HEK293 membranes.
Excerpt: (§4) Human embryonic kidney (HEK) 293 cells (ATCC Cat# CRL‐1573; RRID: CVCL_0045; a commonly misidentified cell line by ICLAC; last authenticated by STR DNA profiling in December 2018) were transfected with rat cDNAs (α1, L08490; α6, L08495; β2, X15467; β3, X15468; γ2S, L08497; δ, L08496) in pRK5 plasmids under the control of the cytomegalovirus promoter (Uusi‐Oukari et al. 2000), using the calcium phosphate precipitation method essentially as described (Lüddens and Korpi 1997). The plasmids were used in 1 : 1 and 1 : 1 : 1 ratios for transfections containing 2 [(α1 or α6) + (β2 or β3)] or 3 [(α1 or α6) + (β2 or β3) + (γ2S or δ)] different subunits, respectively (5 μg of each plasmid DNA for a 10 cm plate). Mock transfection was done using 5 μg pRK5 plasmid backbone. The cells were harvested 48 h after transfection. Culture medium was removed and the cells were detached from the plates by pipetting in ice‐cold assay buffer containing 2 mM EDTA. The cells were homogenized (Ultra Turrax, 20 s at 9500 rpm), the homogenates centrifuged at 20 000 g for 10 min at +4°C, and washed once with the same buffer. The homogenates were finally suspended in assay buffer (1 mL/plate) and either used directly to binding assays or stored frozen at −70°C.
(§5) The binding of [^3H]muscimol (5 nM) was measured in assay buffer at 22°C in a total volume of 300 μL. Triplicate technical replicates of mouse forebrain (190–215 μg protein), cerebellar (180–210 μg protein) or HEK cell (92–132 μg protein) membranes for each time point were incubated with shaking for various times (15 s–15 min) to measure association of the binding. […] The incubation was terminated by filtration of the samples with a Brandel Cell Harvester (model M‐24, Gaithersburg, MD, USA) onto Whatman GF/B filters (Whatman International Ltd., Maidstone, UK). The samples were rinsed twice with 4–5 mL of ice‐cold assay buffer. Filtration and rinsing steps took a total time of ~15 s. Air‐dried filters were immersed in 3 mL of Optiphase HiSafe 3 scintillation fluid (Wallac, Turku, Finland) and radioactivity determined in a Wallac model 1410 liquid scintillation counter (Wallac, Turku, Finland).
as §3

Experiment [3] concerns the target forebrain membranes of WT mice. As to the kind of experiment: [^3H]muscimol binding kinetics, WT forebrain membranes. More on the design: species or system mouse. The protocol: (§6) WT and δKO forebrain and cerebellar membranes were prepared using a modification of the method of Squires and Saederup (2000) essentially as described by Uusi‐Oukari et al. (2014). […] forebrain along with midbrain region was homogenized into 10 mM Tris‐HCl, pH 8.0 buffer containing 2 mM EDTA, using an Ultra‐Turrax T25 (Janke & Kunkel IKA labortechnik) for 20 s at 9500 rpm. The homogenates were centrifuged at 20 000 g for 10 min at +4°C and the resulting pellets were washed three times by resuspension and re‐centrifugation with 10 mM Tris‐HCl, pH 8.5 buffer containing 0.2 M NaCl, and 5 mM EDTA. The resulting pellets were then suspended in ice‐cold H2O and centrifuged. The pellets were again washed three times with Tris, pH 8.5/NaCl/EDTA as described above. The resulting pellets were finally suspended in assay buffer consisting of 50 mM Tris‐base, pH adjusted to 7.4 with citric acid, and frozen at −70°C. Before a binding experiment, the suspension was thawed, centrifuged, and suspended in assay buffer.
(§7) The binding of [^3H]muscimol (5 nM) was measured in assay buffer at 22°C in a total volume of 300 μL. Triplicate technical replicates of mouse forebrain (190–215 μg protein), cerebellar (180–210 μg protein) or HEK cell (92–132 μg protein) membranes for each time point were incubated with shaking for various times (15 s–15 min) to measure association of the binding. […] Air‐dried filters were immersed in 3 mL of Optiphase HiSafe 3 scintillation fluid (Wallac, Turku, Finland) and radioactivity determined in a Wallac model 1410 liquid scintillation counter (Wallac, Turku, Finland). […]
as §3

Experiment [4] has as its target forebrain membranes of WT mice. In words: Saturation analysis of [^3H]muscimol binding, WT forebrain membranes. More on the design: species or system mouse. The settings on record: 0°C. The protocol: as §6
Saturation analysis of [^3H]muscimol to WT and δKO mouse forebrain and cerebellar membranes was performed essentially as described by Uusi‐Oukari and Korpi (1989). […] The incubations were terminated as described above.

The target of experiment [5] is cerebellar membranes of δKO mice (non‐δ‐GABAARs). As to the kind of experiment: [^3H]muscimol binding kinetics, δKO cerebellar membranes. More on the design: species or system mouse. On the procedure:
as §6, §7, §3

The target of experiment [6] is T3, α6β2δ recombinant GABAA receptor (Rattus norvegicus, UniProt P30191+P63138).
T3 construct: expressed in transfected cells; host or cells: HEK293 (ATCC CRL-1573), pRK5 plasmids, membranes
As to the kind of experiment: [^3H]muscimol binding kinetics, recombinant α6β2δ in HEK293 membranes.
Excerpt: as §4
as §5, with “Finland). The maximal binding disintegrations per minute (DPM) values (at 15 min in association) for recombinant studies with 5 nM [^3H]muscimol were between 700 and 2500 DPMs of specific binding (background subtracted). In native membranes, the maximal DPM values were between 2500 and 3000 for WTs and 1300–1500 for δKOs.” for “Finland).”
as §3

Experiment [7] has as its target T4, α6β2 recombinant GABAA receptor (Rattus norvegicus, UniProt P30191+P63138).
T4 construct: expressed in transfected cells; host or cells: HEK293 (ATCC CRL-1573), pRK5 plasmids, membranes
As to the kind of experiment: [^3H]muscimol binding kinetics, recombinant α6β2 in HEK293 membranes. The settings on record: room temperature (22°C).
Excerpt: as §1
The binding of [^3H]muscimol (5 nM) was measured in assay buffer at 22°C in a total volume of 300 μL. […] Air‐dried filters were immersed in 3 mL of Optiphase HiSafe 3 scintillation fluid (Wallac, Turku, Finland) and radioactivity determined in a Wallac model 1410 liquid scintillation counter (Wallac, Turku, Finland). […]
as §3

For experiment [8], the target named is T5, α1β2 recombinant GABAA receptor (Rattus norvegicus, UniProt P62813+P63138).
T5 construct: expressed in transfected cells; host or cells: HEK293 (ATCC CRL-1573), pRK5 plasmids, membranes
In words: [^3H]muscimol binding kinetics, recombinant α1β2 in HEK293 membranes. The settings on record: room temperature (22°C).
Excerpt: as §1, §2, §3

Setting [9] is: room temperature (22°C), 5 nM [^3H]muscimol.

T2 sequence (P62813 28-455): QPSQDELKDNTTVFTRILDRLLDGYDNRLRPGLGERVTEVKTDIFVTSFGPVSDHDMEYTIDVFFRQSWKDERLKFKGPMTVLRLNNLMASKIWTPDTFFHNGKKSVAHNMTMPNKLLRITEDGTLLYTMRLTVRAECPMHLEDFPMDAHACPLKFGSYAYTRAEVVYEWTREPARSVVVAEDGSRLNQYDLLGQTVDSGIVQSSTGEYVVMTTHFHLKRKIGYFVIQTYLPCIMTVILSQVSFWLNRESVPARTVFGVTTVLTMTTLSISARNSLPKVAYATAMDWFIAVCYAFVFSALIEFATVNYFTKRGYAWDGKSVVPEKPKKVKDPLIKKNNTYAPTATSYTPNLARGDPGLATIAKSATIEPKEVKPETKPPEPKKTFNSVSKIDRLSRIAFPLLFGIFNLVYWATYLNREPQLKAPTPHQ
T2 sequence (P63138 26-474): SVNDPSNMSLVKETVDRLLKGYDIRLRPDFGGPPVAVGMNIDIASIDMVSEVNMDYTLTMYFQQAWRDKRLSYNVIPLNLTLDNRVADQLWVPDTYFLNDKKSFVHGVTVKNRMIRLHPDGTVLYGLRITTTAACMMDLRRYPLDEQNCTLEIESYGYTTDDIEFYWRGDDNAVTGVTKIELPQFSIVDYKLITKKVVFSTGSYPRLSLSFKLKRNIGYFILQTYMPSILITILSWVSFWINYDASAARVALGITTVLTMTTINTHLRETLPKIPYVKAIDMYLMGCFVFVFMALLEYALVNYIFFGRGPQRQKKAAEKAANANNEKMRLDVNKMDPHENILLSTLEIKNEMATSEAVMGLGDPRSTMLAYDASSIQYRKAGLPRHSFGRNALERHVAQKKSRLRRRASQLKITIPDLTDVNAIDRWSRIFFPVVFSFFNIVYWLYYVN
T2 sequence (P18508 39-466 partner): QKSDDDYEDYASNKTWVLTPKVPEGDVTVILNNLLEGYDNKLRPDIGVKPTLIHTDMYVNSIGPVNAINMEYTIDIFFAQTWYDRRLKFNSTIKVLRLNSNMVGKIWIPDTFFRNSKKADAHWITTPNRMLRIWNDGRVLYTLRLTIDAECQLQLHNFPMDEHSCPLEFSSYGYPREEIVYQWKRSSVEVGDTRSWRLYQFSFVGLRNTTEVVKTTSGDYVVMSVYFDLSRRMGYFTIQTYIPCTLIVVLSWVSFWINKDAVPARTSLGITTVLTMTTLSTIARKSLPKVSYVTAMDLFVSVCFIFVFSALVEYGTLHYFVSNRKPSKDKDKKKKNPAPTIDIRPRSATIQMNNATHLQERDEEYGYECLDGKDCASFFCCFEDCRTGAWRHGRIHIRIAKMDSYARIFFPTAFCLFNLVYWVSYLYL
T3 sequence (P30191 20-453): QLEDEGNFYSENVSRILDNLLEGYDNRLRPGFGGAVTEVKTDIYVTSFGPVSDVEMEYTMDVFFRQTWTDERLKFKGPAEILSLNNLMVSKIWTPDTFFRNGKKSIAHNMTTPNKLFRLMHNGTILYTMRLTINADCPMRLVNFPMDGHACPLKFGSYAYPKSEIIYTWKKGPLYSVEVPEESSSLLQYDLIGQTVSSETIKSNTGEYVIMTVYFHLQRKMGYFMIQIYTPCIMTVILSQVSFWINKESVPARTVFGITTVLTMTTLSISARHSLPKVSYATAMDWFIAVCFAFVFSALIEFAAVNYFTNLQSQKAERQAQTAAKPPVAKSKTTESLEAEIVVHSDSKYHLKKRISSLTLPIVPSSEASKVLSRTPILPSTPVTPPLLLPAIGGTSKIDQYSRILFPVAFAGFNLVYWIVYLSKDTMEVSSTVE
T3 sequence (P63138 26-474): as the sequence (P63138 26-474) above
T3 sequence (P18506 25-449 partner): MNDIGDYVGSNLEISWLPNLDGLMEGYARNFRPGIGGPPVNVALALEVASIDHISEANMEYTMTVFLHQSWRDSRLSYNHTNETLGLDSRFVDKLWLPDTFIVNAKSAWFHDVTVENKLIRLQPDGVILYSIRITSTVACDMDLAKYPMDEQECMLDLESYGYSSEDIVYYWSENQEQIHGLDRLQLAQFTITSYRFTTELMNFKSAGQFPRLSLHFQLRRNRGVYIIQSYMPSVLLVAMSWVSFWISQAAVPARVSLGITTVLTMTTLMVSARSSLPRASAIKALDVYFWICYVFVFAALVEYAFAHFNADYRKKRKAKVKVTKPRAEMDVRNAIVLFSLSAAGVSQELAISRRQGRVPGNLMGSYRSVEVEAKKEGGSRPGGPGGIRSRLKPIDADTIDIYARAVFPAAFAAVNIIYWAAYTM
T5 sequence (P62813 28-455): as the sequence (P62813 28-455) above
T5 sequence (P63138 26-474): as the sequence (P63138 26-474) above
T1 sequence (P62813 28-455): as the sequence (P62813 28-455) above
T1 sequence (P63138 26-474): as the sequence (P63138 26-474) above
T1 sequence (P18506 25-449 partner): as the sequence (P18506 25-449 partner) above
T4 sequence (P30191 20-453): as the sequence (P30191 20-453) above
T4 sequence (P63138 26-474): as the sequence (P63138 26-474) above

As for `NCc1cc(=O)[nH]o1` [[^3H]muscimol] [[Methylene‐^3H]muscimol], the k off in experiment [1] is 0.18 ± 0.03 ^### min^−1; in experiment [2] (α1β2γ2 in HEK293 membranes, +4 °C) it was 0.00587 ± 0.00015 s⁻¹; in experiment [2] (α1β2γ2 in HEK293 membranes, room temperature (22°C)), 0.0297 ± 0.003 s⁻¹; in experiment [3] (room temperature (22°C)), 0.00883 ± 0.00033 s⁻¹; in experiment [5] (room temperature (22°C)), 1.11 ± 0.09 ^* min^−1; in experiment [6] (α6β2δ in HEK293 membranes, +4 °C) it was 0.015 ± 0.003 ^*** min^−1. Besides, the k off was 0.13 ± 0.03 ^### min^−1 in experiment [6] (α6β2δ in HEK293 membranes, room temperature (22°C)); 1.46 ± 0.05 ^††† min^−1 in experiment [7]; 0.49 ± 0.07 ^### min^−1 in experiment [8]. Moreover, the “dissociation of [^3H]muscimol binding during the first 15 s after pre‐incubation” value in experiment [2] (α1β2γ2, 0°C, approximated) is reported as “about 10%”. Further, the Kd – broadly, a measure of binding affinity in units of concentration – turned out to be 1.6 nM in experiment [2] (α1β2γ2 in HEK293 membranes, 22°C, K D = koff/kon); 1.6 nM in experiment [3] (22°C, K D = koff/kon); 1.4 nM in experiment [5] (22°C, K D = koff/kon); 1.3 nM in experiment [6] (α6β2δ in HEK293 membranes, 22°C, K D = koff/kon). In addition, the k on in experiment [2] (α1β2γ2 in HEK293 membranes, room temperature (22°C), 5 nM [^3H]muscimol) is reported as 11 ± 0.6 × 10^8 M^−1 × min^−1; in experiment [3] (setting [9]), 3.3 ± 0.2 × 10^8 M^−1 × min^−1; in experiment [5] (setting [9]) it was 7.7 ± 0.2 × 10^8 ^** M^−1 × min^−1; in experiment [6] (α6β2δ in HEK293 membranes, room temperature (22°C), 5 nM [^3H]muscimol) it was 1.0 ± 0.1 × 10^8, ^### M^−1 × min^−1. The “Apparent pKD” value in experiment [4] came out at 8.02 ± 0.06. In experiment [6] (α6β2δ vs α1β2γ2 and α6β2γ2, 22°C), the “association rate constant kon lower when compared to γ2‐GABAARs” value is 6.3–11 fold. Moreover, the “[^3H]muscimol still remaining bound” value in experiment [6] (α6β2δ, 0°C, 30 min after start of the dissociation) was 70%.
